Experimental data reported in ChEMBL document CHEMBL1157539, “Thousands of chemical starting points for antimalarial lead identification” (Nature, 2010).

test system: Plasmodium falciparum; experiment: GSK_TCMDC: Inhibition of Plasmodium falciparum 3D7 in whole erythrocytes, using parasite LDH activity as an index of growth.; format: functional, organism-based; settings: Plasmodium falciparum, 3D7

Row | Compound | XC50
1 | CCN(CC)CCN(Cc1ccc(-c2ccc(C(F)(F)F)cc2)cc1)C(=O)Cn1c(CCc2ccc(F)cc2)nc(=O)c2ccccc21 | 1.07 µM
2 | COCCCn1c(=N)c(C(=O)NCCc2ccc(OC)cc2)cc2c(=O)n3cccc(C)c3nc21 | 1.03 µM
3 | CCCCCCc1cc(OC)c(OC)cc1C(C)Nc1ccnc2cc(Cl)ccc12 (stereo not given) | 0.488 µM
4 | CCc1cn(C)c2c(N3CCCC3=O)cc(C(=O)N[C@@H](Cc3ccccc3)[C@H](O)CNC(C)(C)c3cccc(C(F)(F)F)c3)cc12 | 0.106 µM
5 | Cc1cc(CN2CCC(C(=O)Nc3ccc(-c4nc5ccccc5[nH]4)cc3)CC2)oc1C | 1.45 µM
6 | CS(=O)(=O)CCNc1nccc(N2CCc3ncnc(Nc4ccc(OCc5cccc(F)c5)c(Cl)c4)c3C2)n1 | 0.132 µM
7 | CN(C)Cc1c(O)ccc2oc(Cc3ccccc3)cc12 | 0.912 µM
8 | Cc1cc(C2CCN(CCCCNC(=O)c3ccc(-c4ccc(C#N)cc4)cc3)CC2)c(C)cc1OCCO | 0.808 µM
9 | O=C(Nc1ccc(Cn2nc(Cl)c(N3CCCNCC3)cc2=O)cc1)Nc1ccc(-c2ccccc2)cc1 | 0.843 µM
10 | Cc1nnc2c(N(C(=O)NCCc3ccccc3)C(=O)NCCc3ccccc3)cc3cc(Cl)ccc3n12 | 0.954 µM
11 | CC1CCC(C(C)C)C(OC(=O)CSc2nnc3c(n2)[nH]c2ccccc23)C1 (stereo not given) | 0.931 µM
12 | COc1cc(C=NN=c2cc(C)[nH]c3ccccc23)cc(OC)c1OC | 0.73 µM
13 | CN(C)C(=O)O[C@@H]1CN[C@H](C#Cc2cc3ncnc(Nc4ccc5c(cnn5Cc5cccc(F)c5)c4)c3s2)C1 | 0.759 µM
14 | CN1N=C2c3ccccc3CCC2C1c1ccc(C#N)cc1 (stereo not given) | 0.655 µM
15 | O=C1CC(C(=O)O)CC(=O)N1 | 0.763 µM
16 | COc1cccc(Nc2nc(N)c3ccccc3n2)c1 | 0.934 µM
17 | N=C(NCCCc1ccccc1)c1cccc(C(=N)NCCCc2ccccc2)n1 | 1.38 µM
18 | Clc1ccc2c(NN=Cc3ccccc3)ccnc2c1 | 0.755 µM
19 | CCCCCCCCNCCCSCCCNCCCCCCCC | 1.23 µM
20 | CC(C)CNC(=S)N1CCCN(c2nc3ccc(Cl)cc3s2)CC1 | 0.96 µM
21 | Cc1ccc(CCOCCCCCNCC(O)c2cc(Cl)c(N)c(Cl)c2)cc1 (stereo not given) | 0.945 µM
22 | CN1CCN(c2ccnc3ccc(NC(=O)c4ccc(Cl)c(Cl)c4)cc23)CC1 | 0.71 µM
23 | CC(=NNC(=N)N)c1ccc2ccc3ccccc3c2c1 | 0.892 µM
24 | Fc1ccc2[nH]c(-c3cccc(-c4ccc(CN5CCN(CCN6CCOCC6)CC5)cc4)c3)nc2c1 | 0.307 µM
25 | CCn1cc(-c2cc(C(=O)Nc3ccc(OC)cc3C)c3ccccc3n2)c(C)n1 | 0.975 µM

Row | Compound | XC50
26 | N=C(/N=C(/NCCCCCCN/C(=N\C(=N)Nc1ccc(Cl)cc1)N1CCCCC1)N1CCCCC1)Nc1ccc(Cl)cc1 | 0.256 µM
27 | COc1ccc(-c2cnc3[nH]cc(-c4ccncc4)c3c2)cc1OC | 0.126 µM
28 | Cc1cc(-c2nc3cncc(-c4cccc(CN5CCCC5Cc5cccnc5)c4)c3n2C)nn1C (stereo not given) | 0.132 µM
29 | CCc1n[nH]c(C(=O)NC2CCN(CC3(c4ccc(OC)cc4)CCCCC3)CC2)c1C | 0.892 µM
30 | CCc1ccc(CN(Cc2ccc(C)cc2)Cc2ccc(NC(C)=O)cc2)cc1 | 0.962 µM
31 | O=C1CC(C(=O)Nc2cccc(-c3cccc(-c4nc5ccccc5[nH]4)c3)c2)c2ccccc2N1 (stereo not given) | 0.98 µM
32 | COC(=O)c1ccc(CC(C)NCC(O)c2ccc(Cl)c(Cl)c2)cc1 (stereo not given) | 1 µM
33 | O=C(/C=C/c1ccc(Cl)c(Cl)c1)NC1CCC(CN2CCC(c3c[nH]c4ccccc34)CC2)CC1 (stereo not given) | 0.235 µM
34 | Cc1cc2nc(-c3ccc(OCC(=O)NCc4cccc(C(F)(F)F)c4)cc3)[nH]c2cc1C | 0.988 µM
35 | Cc1ccc(CNC(=O)c2ccc(CN3CCCN(Cc4ccsc4)CC3)cc2)cc1 | 0.868 µM
36 | CN(Cc1ccc(C#N)cc1)C1CCN(c2cc(NC(=O)c3ccc(F)cc3)ccn2)CC1 | 1.43 µM
37 | CC12CC3CC(C)(C1)CC(Nc1nc(N4CCOCC4)nc4ccccc14)(C3)C2 | 0.938 µM
38 | CCN(CCCN1CCCCC1)c1cc(C)nc(Nc2ccc(Cl)c(C(F)(F)F)c2)n1 | 0.173 µM
39 | Cc1c(C(C)(C)C)ccc2nc(N)nc(N)c12 | 0.00873 µM
40 | N=C(NCc1ccccc1)Nc1nc(-c2ccc(OCCCn3ccnc3)cc2)cs1 | 0.253 µM
41 | COc1ccc(C=NN=c2cc(C)[nH]c3ccc(C)cc23)c2ccccc12 | 0.864 µM
42 | CO/C(=C\C=C\c1cc2cc(Cl)c(Cl)cc2[nH]1)C(=O)NCCN1CCCCC1 | 1.4 µM
43 | O=C(/C=C/c1ccccc1O)N1CCC(CCN2CCC(c3c[nH]c4ccccc34)CC2)CC1 | 1.34 µM
44 | CC(=O)Nc1ccc(S(=O)(=O)NC2=NC(=N)N(OCc3ccc(Cl)c(Cl)c3)C(C)(C)N2)cc1 | 0.0339 µM
45 | O=C(Nc1ccccc1)N1CCC(CN2CCOC(c3ccccc3)(c3ccccc3)C2)CC1 | 0.206 µM
46 | O=C(NC1CCC(CN2CCC(c3c[nH]c4ccccc34)CC2)CC1)c1csc(-c2ccc(C(F)(F)F)cc2Cl)n1 (stereo not given) | 0.827 µM
47 | O=[N+]([O-])c1ccc(C(O)P(=O)(c2ccccc2)c2ccccc2)cc1 (stereo not given) | 0.341 µM
48 | COc1ccc2nc3cc(Cl)ccc3c(Nc3ccc(O)c(CN4CC5CCC(CC5)C4)c3)c2c1 | 0.172 µM
49 | CCN1CCN(c2cc(C)c3cc(NC(=O)C=Cc4cccc(OC)c4OC)ccc3n2)CC1 | 0.697 µM
50 | CSc1ccc(CN2CCC(NC(=O)c3ccc(-c4cccc(C(F)(F)F)c4)s3)CC2)cc1 | 1.22 µM

Row | Compound | XC50
51 | Cc1cc(C2CCN(CCCCNC(=O)c3ccc(NC(=O)c4ccc(Cl)cc4)cc3)CC2)c(C)cc1OCCN(C)C | 0.766 µM
52 | CC(C)CNCc1cccc(-c2ccccc2CN(C(=O)NCCc2ccccc2)C2CCN(Cc3ccccc3)CC2)c1 | 1.17 µM
53 | O=C(Nc1cccc(-c2ccc(-c3nc4ccccc4[nH]3)cc2)c1)c1cnn2cccnc12 | 1.06 µM
54 | CCN1CCN(c2cc(C)c3cc(NC(=O)c4ccc(OC)c(OC)c4)ccc3n2)CC1 | 1.03 µM
55 | CN(C)CCCNCc1cn(S(=O)(=O)c2ccccc2Cl)c2ccccc12 | 1.07 µM
56 | CCCCCCCn1c(=O)c(C(=O)Nc2c(C)cccc2C)c(O)c2ccccc21 | 0.91 µM
57 | CCNc1cc(C(=O)N[C@@H](Cc2ccccc2)[C@H](O)CNC(C)(C)c2cccc(OC)c2)cc(N2CCCC2=O)c1 | 0.143 µM
58 | COc1ccc2cc(C(=O)NC3CCC(CCN4CCc5cc(C#N)ccc5C4)CC3)[nH]c2c1 (stereo not given) | 1.01 µM
59 | CN(C)CCCc1cc(NC(=O)Nc2cccc(Cl)c2Cl)ccc1I | 0.539 µM
60 | CN(C)CCOc1ccnc2ccc(NC(=O)Cc3ccc(-c4ccncc4)c4ccccc34)cc12 | 0.277 µM
61 | O=C(NC1CCC(CN2CCC(c3c[nH]c4ccccc34)CC2)CC1)c1cc(-c2ccccc2Cl)n(-c2cccc(Cl)c2)n1 (stereo not given) | 0.851 µM
62 | CCCCCC(C)C(C)c1cc(O)c2c(c1)OC(C)(C)CC2c1cc[n+]([O-])cc1 (stereo not given) | 0.499 µM
63 | CC(Nc1nncc(-c2cccc(F)c2)n1)c1ccc(F)cc1 (stereo not given) | 0.791 µM
64 | CC(C)Oc1cc2c(cc1NS(=O)(=O)c1ccc(-c3ccc(Cl)cc3)cc1)CCN(C)CC2 | 1.04 µM
65 | CCCCN(CCCC)C(=N)c1cccc2c1CCCC2 | 1.56 µM
66 | COC(=O)c1cc(NC(=O)Nc2ccc(Cn3ncc(N4CCCNCC4)c(Cl)c3=O)cc2)cc(C(=O)OC)c1 | 0.708 µM
67 | Cc1cc(NCCC(=O)Nc2ccccc2)nc(NCc2ccccc2C)n1 | 0.657 µM
68 | c1ccc(CNc2nc(NCCc3c[nH]cn3)nc(NCc3cccc4ccccc34)n2)cc1 | 1.11 µM
69 | CCCCCN1CCC(NS(=O)(=O)c2cccc(C(=O)Nc3ccc(C(F)(F)F)cc3)c2)C1 (stereo not given) | 0.798 µM
70 | CN(CCN)Cc1cccc(-c2cccc(-c3nc4cc(F)ccc4[nH]3)c2)c1 | 0.785 µM
71 | Fc1ccc2[nH]c(-c3ccc(-c4cccc(CN5CCC(CCN6CCCCC6)CC5)c4)cc3)nc2c1 | 0.136 µM
72 | COc1ccc(CNc2nc(NCc3ccccc3)c3cc(OC)c(OC)cc3n2)cc1OC | 0.54 µM
73 | Clc1ccccc1CNc1noc(-c2sccc2Br)n1 | 0.787 µM
74 | Nc1nc(N)c2c(Cc3ccccc3)cccc2n1 | 0.828 µM
75 | Cc1cc(N2CCCC2)nc(Nc2ccc(NC(=O)Cc3ccccc3)cc2)n1 | 0.606 µM

Row | Compound | XC50
76 | CC(C)N1CCN(C(CN2CCN(CCCOc3cccc(-c4ccccc4)c3)CC2)c2ccc(F)cc2)CC1 (stereo not given) | 0.892 µM
77 | FC(F)(F)c1ccc2[nH]c(-c3cccc(-c4ccc(CNCCN5CCNCC5)cc4)c3)nc2c1 | 0.862 µM
78 | Cc1ccc(Oc2ccc(CNc3nc(Nc4cccc(F)c4)nc(Nc4cccc(F)c4)n3)cc2)cc1 | 1.21 µM
79 | CNC(=O)c1cnc(Nc2ccc(OCC(O)CN(C)C)cc2)nc1Nc1cccc(OC)c1 (stereo not given) | 0.319 µM
80 | Cc1n[nH]c2ccc(-c3cc(OC[C@@H](N)Cc4ccccc4)cnc3-c3ccc(OCc4cccc(F)c4)cc3)cc12 | 0.73 µM
81 | CN(C)c1ccc(-c2cscc2C(=O)NC2CCCN(Cc3cccnc3)C2)cc1 (stereo not given) | 0.859 µM
82 | O=C(Nc1ccc(SC(F)(F)F)cc1)Nc1ccnc2ccccc12 | 0.746 µM
83 | O=C(Nc1ccnc2ccccc12)NC1CCN(Cc2ccccc2)CC1 | 0.988 µM
84 | COCCN(C)c1ccc(C(=O)Nc2ccccc2)cc1NS(=O)(=O)Cc1ccccc1 | 0.571 µM
85 | Cc1ccccc1C1CCN(C2CCC(NC(=O)/C=C/c3ccc(F)cc3)CC2)CC1 (stereo not given) | 1.34 µM
86 | Cc1[nH]c2ccccc2c1C1CCN(CC2CCC(NC(=O)/C=C/c3ccc(Cl)c(Cl)c3)CC2)CC1 (stereo not given) | 0.822 µM
87 | Cc1cccc2nc(-c3cccc(-c4ccc(NC(=O)C(C)(C)c5ccccn5)cc4)c3)[nH]c12 | 0.685 µM
88 | COc1ccc(CNc2ncnc3c2[nH]c2ccc(F)cc23)cc1 | 0.98 µM
89 | Cc1cc(N2CCC(N(C)C)C2)nc(Nc2ccc(Cl)cc2)n1 (stereo not given) | 0.517 µM
90 | CCCCCCn1c(Sc2ccc(C#N)c([N+](=O)[O-])c2)nnc1-c1ccc(Cl)cc1 | 0.832 µM
91 | CC(C)(C)c1cc(Cn2ccnc2)cc(C(C)(C)C)c1O | 1.04 µM
92 | Nc1nc(N)c2c(ccc3c2ccn3Cc2ccc(-c3ccccc3)cc2)n1 | 0.0483 µM
93 | COc1ccc(-c2ccnc(-c3cccc(-c4ccccn4)n3)c2)cc1 | 0.824 µM
94 | Cc1cccc(Cl)c1S(=O)(=O)N1CCCCC(c2ccc(C(F)(F)F)cc2)=N1 | 0.216 µM
95 | CN1CCC(COc2ccc(CN3CCC(NC(=O)c4cccc(Cl)c4)CC3)cc2)CC1 | 0.889 µM
96 | Nc1ncc(-c2cn[nH]c2)cc1-c1nc2ccc(F)cc2[nH]1 | 0.729 µM
97 | CCN(CC)CCN1C(=O)c2oc3ccc(Cl)cc3c(=O)c2C1c1ccc(SC)cc1 (stereo not given) | 1.06 µM
98 | CCCCC1(NC(=O)[C@H](CC(C)C)Nc2ccc(C#N)c3ccccc23)CCCCC1 | 0.799 µM
99 | CC(C)(CNCc1ccccc1)c1nc(-c2ccc(Cl)c(O)c2)c(-c2ccncc2)[nH]1 | 0.537 µM
100 | Cc1cccc(C(=O)Nc2ccc(N3CCCN(Cc4cccc(O)c4)CC3)cc2)c1 | 1.42 µM
